Test results published in the supplement of paper PMC10307832.

Experiments:
Experiment in all cases: relative viability (nuclei count vs DMSO), 5 days (fraction); higher = more cells survive
[1] = system: COR-L 105
Outline: (§1)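 Five library-drug doses in √10 steps were combined with a fixed anchor-drug dose, or a single drug was given alone, by pin tool to lung cancer cell lines in 1536-well plates the day after seeding. Nuclei were stained and counted after 5 days. Relative viability is the nuclei count in treated wells over that in vehicle wells, taken as the median of duplicate plates.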

[2] = system: EPLC-272H
Outline: as §1

[3] = system: HCC-15
Outline: as §1

[4] = system: HCC-366
Outline: as §1

[5] = system: HCC-44
Outline: as §1

[6] = system: HCC-78
Outline: as §1

[7] = system: HCC-827
Outline: as §1

[8] = system: LCLC-103H
Outline: as §1

[9] = system: NCI-H1437
Outline: as §1

[10] = system: NCI-H1792
Outline: as §1

[11] = system: NCI-H1944
Outline: as §1

[12] = system: NCI-H2085
Outline: as §1

[13] = system: NCI-H3122
Outline: as §1

[14] = system: NCI-H358
Outline: as §1

[15] = system: NCI-H661
Outline: as §1

[16] = system: NCI-H727
Outline: as §1

[17] = system: PC-14
Outline: as §1

[18] = system: SK-LU-1
Outline: as §1

[19] = system: SK-MES-1
Outline: as §1

[20] = system: UMC-11
Outline: as §1

SMILES: COCC1(CO)C(=O)C2CCN1CC2 (stereo not given) [PRIMA-1MET] + C[C@]1(O)C[C@@H](c2nc(-c3ccc4ccc(-c5ccccc5)nc4c3)c3c(N)nccn32)C1 [Linsitinib] (partner 1 µM)
- relative viability ([1]; first compound 0.2 µM): 0.943
- relative viability ([1]; first compound 0.6325 µM): 0.815
- relative viability ([1]; first compound 2 µM): 0.823
- relative viability ([1]; first compound 6.325 µM): 0.859
- relative viability ([1]; first compound 20 µM): 0.168
- relative viability ([2]; first compound 0.2 µM): 1.26
- relative viability ([2]; first compound 0.6325 µM): 1.01
- relative viability ([2]; first compound 2 µM): 1.06
- relative viability ([2]; first compound 6.325 µM): 1.2
- relative viability ([2]; first compound 20 µM): 0.973
- relative viability ([3]; first compound 0.2 µM): 0.893
- relative viability ([3]; first compound 0.6325 µM): 0.544
- relative viability ([3]; first compound 2 µM): 0.78
- relative viability ([3]; first compound 6.325 µM): 0.903
- relative viability ([3]; first compound 20 µM): 0.722
- relative viability ([4]; first compound 0.2 µM): 0.773
- relative viability ([4]; first compound 0.6325 µM): 0.566
- relative viability ([4]; first compound 6.325 µM): 0.636
- relative viability ([4]; first compound 20 µM): 0.0588
- relative viability ([5]; first compound 0.2 µM): 0.746
- relative viability ([5]; first compound 0.6325 µM): 0.528
- relative viability ([5]; first compound 2 µM): 0.673
- relative viability ([5]; first compound 6.325 µM): 0.706
- relative viability ([5]; first compound 20 µM): 0.625
- relative viability ([6]; first compound 0.2 µM): 0.658
- relative viability ([6]; first compound 0.6325 µM): 0.556
- relative viability ([6]; first compound 6.325 µM): 0.498
- relative viability ([6]; first compound 20 µM): 0.0559
- relative viability ([7]; first compound 0.2 µM): 1.04
- relative viability ([7]; first compound 0.6325 µM): 0.884
- relative viability ([7]; first compound 2 µM): 0.698
- relative viability ([7]; first compound 6.325 µM): 0.962
- relative viability ([7]; first compound 20 µM): 0.906
- relative viability ([8]; first compound 0.2 µM): 1.24
- relative viability ([8]; first compound 0.6325 µM): 0.956
- relative viability ([8]; first compound 2 µM): 0.905
- relative viability ([8]; first compound 6.325 µM): 1.12
- relative viability ([8]; first compound 20 µM): 1.1
- relative viability ([9]; first compound 0.2 µM): 1.08
- relative viability ([9]; first compound 0.6325 µM): 0.982
- relative viability ([9]; first compound 2 µM): 1.02
- relative viability ([9]; first compound 6.325 µM): 1.1
- relative viability ([9]; first compound 20 µM): 0.753
- relative viability ([10]; first compound 0.2 µM): 0.521
- relative viability ([10]; first compound 0.6325 µM): 0.477
- relative viability ([10]; first compound 2 µM): 0.368
- relative viability ([10]; first compound 6.325 µM): 0.578
- relative viability ([10]; first compound 20 µM): 0.53
- relative viability ([11]; first compound 0.2 µM): 1.27
- relative viability ([11]; first compound 0.6325 µM): 0.95
- relative viability ([11]; first compound 6.325 µM): 1.27
- relative viability ([11]; first compound 20 µM): 1.17
- relative viability ([12]; first compound 0.2 µM): 1
- relative viability ([12]; first compound 0.6325 µM): 0.826
- relative viability ([12]; first compound 2 µM): 0.866
- relative viability ([12]; first compound 6.325 µM): 0.731
- relative viability ([12]; first compound 20 µM): 0.287
- relative viability ([13]; first compound 0.2 µM): 0.853
- relative viability ([13]; first compound 0.6325 µM): 0.996
- relative viability ([13]; first compound 2 µM): 1.04
- relative viability ([13]; first compound 6.325 µM): 0.945
- relative viability ([13]; first compound 20 µM): 1.03
- relative viability ([14]; first compound 0.2 µM): 0.97
- relative viability ([14]; first compound 0.6325 µM): 0.399
- relative viability ([14]; first compound 6.325 µM): 0.757
- relative viability ([14]; first compound 20 µM): 0.0326
- relative viability ([15]; first compound 0.2 µM): 0.561
- relative viability ([15]; first compound 0.6325 µM): 0.507
- relative viability ([15]; first compound 6.325 µM): 0.532
- relative viability ([15]; first compound 20 µM): 0.283
- relative viability ([16]; first compound 0.2 µM): 0.386
- relative viability ([16]; first compound 0.6325 µM): 0.247
- relative viability ([16]; first compound 2 µM): 0.301
- relative viability ([16]; first compound 6.325 µM): 0.356
- relative viability ([16]; first compound 20 µM): 0.169
- relative viability ([17]; first compound 0.2 µM): 0.918
- relative viability ([17]; first compound 0.6325 µM): 0.978
- relative viability ([17]; first compound 2 µM): 0.923
- relative viability ([17]; first compound 6.325 µM): 0.987
- relative viability ([17]; first compound 20 µM): 0.927
- relative viability ([18]; first compound 0.2 µM): 1.24
- relative viability ([18]; first compound 0.6325 µM): 1.03
- relative viability ([18]; first compound 2 µM): 1.14
- relative viability ([18]; first compound 6.325 µM): 1.06
- relative viability ([18]; first compound 20 µM): 0.458
- relative viability ([19]; first compound 0.2 µM): 1.13
- relative viability ([19]; first compound 0.6325 µM): 1.04
- relative viability ([19]; first compound 2 µM): 1.02
- relative viability ([19]; first compound 6.325 µM): 1.05
- relative viability ([19]; first compound 20 µM): 1.11
- relative viability ([20]; first compound 0.2 µM): 1.11
- relative viability ([20]; first compound 0.6325 µM): 0.887
- relative viability ([20]; first compound 2 µM): 1.04
- relative viability ([20]; first compound 6.325 µM): 0.97
- relative viability ([20]; first compound 20 µM): 0.94
